This is an account of results in ChEMBL document CHEMBL1148049, “Antimitotic and cytotoxic flavonols from Zieridium pseudobtusifolium and Acronychia porteri” (J Nat Prod, 1994).

pIC50: −log10 of the molar value. In brackets after ≈: the same amount, converted by molar mass.

One test concerns KB. Put plainly: Cytotoxicity against human KB cells. In kind it is functional, cell-based.
Usually IC50 stands for the midpoint of a concentration-inhibition curve. The compound `COc1cc(-c2oc3c(OC)c(OC)c(OC)c(O)c3c(=O)c2OC)ccc1O` showed a 50% inhibitory concentration (IC50) of 0.2 µg/mL (≈ 0.495 µM). The same measure, in the same setting: as for `COc1c(OC)c(O)c2c(=O)c(OC)c(-c3ccc(O)c(O)c3)oc2c1OC`, the figure is 0.44 µg/mL (≈ 1.13 µM); as for `COc1cc(-c2oc3c(OC)c(OC)c(OC)c(O)c3c(=O)c2OC)cc(O)c1OC` [DIGICITRIN], 2 µg/mL (≈ 4.6 µM); as for `COc1ccc(-c2oc3c(OC)c(OC)c(OC)c(O)c3c(=O)c2O)cc1OC`, 0.1 µg/mL (≈ 0.247 µM).

Take `COc1ccc(-c2oc3c(OC)c(OC)c(OC)c(O)c3c(=O)c2O)cc1O`: the IC50 was 6 µg/mL (≈ 15.4 µM). The same measure, in the same setting: the value for `COc1cc(-c2oc3c(OC)c(OC)c(OC)c(O)c3c(=O)c2O)cc(O)c1OC` was 2 µg/mL (≈ 4.76 µM). The same measure, in the same setting: as for `COc1ccc(-c2oc3c(OC)c(OC)c(OC)c(O)c3c(=O)c2OC)cc1O`, the figure is 0.04 µg/mL (≈ 0.0989 µM); as for `COc1ccc(-c2oc3cc(O)c(OC)c(O)c3c(=O)c2OC)cc1O` [CENTAUREIDIN], 0.27 µg/mL (≈ 0.749 µM). Still for that read-out and setting: as for `COc1ccc(-c2oc3c(OC)c(OC)c(OC)c(O)c3c(=O)c2OC)cc1OC`, the figure is 6 µg/mL (≈ 14.3 µM).

Tested on in another test: not listed separately
Nature of the test: Inhibition of tubulin assembly.
As usually defined, the pIC50 is the negative decadic logarithm of the IC50, by convention in mol/L. Read a low pIC50 as a large IC50. Compound `CC[C@]1(O)C[C@@H]2CN(CCc3c([nH]c4ccccc34)[C@@](C(=O)OC)(c3cc4c(cc3OC)N(C)[C@H]3[C@@](O)(C(=O)OC)[C@H](OC(C)=O)[C@]5(CC)C=CCN6CC[C@]43[C@@H]65)C2)C1` [VINBLASTINE] gave a negative logarithm of the IC50 (pIC50) of 5.40. The same measure, in the same setting: as for `COc1ccc(-c2oc3c(OC)c(OC)c(OC)c(O)c3c(=O)c2OC)cc1O`, the figure is 4.92. Still for that read-out and setting: the value for `COc1ccc(-c2oc3cc(O)c(OC)c(O)c3c(=O)c2OC)cc1O` [CENTAUREIDIN] was 5.52.
